Test results reported in patent publication US20030134342A1, “Binding-specific peptides, binding-specific carrier molecules, and uses thereof” (priority 2001, published 2003).
Where no end group is shown, it is not given here.

What was measured:
[1] = test system: CML cells; assay: ELISA binding of phage displaying peptides to fixed cells: CML cells; parameters: species or system human; conditions: in words
Experimental: (§1) Preliminary experiments were performed to identify specific peptides by using cells from patients diagnosed with CLL, CML, and AML. The screening was performed by incubating the cells with the phage-peptides from the library. This incubation allows interaction between the peptide and the cell. The binding step was followed by several washes to eliminate free phage. Phage bound on the cell surface was eluted.
(§2) After the last round of binding with one cell type, the eluted phage was plated on an agar plate with the appropriate selection antibiotics. Each individual colony, corresponding to one individual peptide sequence, was amplified in a 96-well plate. After purification, these peptides were tested for their ability to bind to the cells in a microtiter plate by ELISA.
(§3) Each peptide was dispensed in a 96-well plate, containing cells previously fixed. Each colony was tested in a triplicate assay with the appropriate controls. After incubation of cells with an individual clone, the wells were washed to eliminate free phage. The bound phages were detected by using a monoclonal anti-M13 antibody/horseradish peroxidase (HRP) conjugate. After addition of the HRP substrate, the intensity of the coloration was measured by spectrophotometry. The light absorbance values (optical density values, O.D. values) are proportional to the number of phage bound to the cells.
(§4) The binding to various cell types were examined to evaluate the cellular specificity of the phage clones. For example, the clones from phage eluted from CLL patient cells were assayed for their ability to bind cells from an AML patient. Cells from normal donors (non-leukemic) were also evaluated to ascertain leukemia cell specificity.
(§5) Peripheral blood and bone marrow samples were collected from patients after informed consent. The samples were collected in tubes containing sodium citrate. Mononuclear cells were isolated by Ficoll-Hypaque density gradient separation and collection of the cells at a density of 1.077 g/mL.
(§6) The wells of a 96-well plate were pre-treated with 100 μL of poly-L-lysine (0.01 mg/mL in phosphate-buffered saline, 120 mM NaCl, 2.7 mM KCl, 10 mM phosphate buffer, “PBS”) for 2-16 hours at room temperature. After draining the poly-L-lysine from the wells, the excess poly-L-lysine was removed from the wells by flicking. The cells were washed with PBS, then suspended in PBS and diluted to a final concentration of […]. The cell suspension (200 μL; 250,000 cells) were added to each well needed for the assay.
(§7) The plates were centrifuged at 500 g for about 5 minutes in a microplate carrying centrifuge when available. The cells were fixed to the wells through the addition of glutaraldehyde (100 μL of 0.5%) and incubating at room temperature for about an hour. The glutaraldehyde was removed and the cell-coated wells washed once with PBS. Alternatively, the cells were permitted to settle to the well bottoms for about 4 hours at 37° C., and the glutaraldehyde fixative was added after removing the PBS.
(§8) A glycine solution (200 μl of 0.1 M glycine in PBS) containing bovine serum albumin (BSA; 1%) was added to the wells and permitted to incubate for 30 minutes to block excess glutaraldehyde. The glycine was removed, and the cell-coated wells washed once with PBS. A sodium pyrophosphate solution (200 μL of 0.3 mg/mL NaPPi) was added to the wells and incubated for an hour at room temperature to neutralize lysine charges. The pyrophosphate solution was removed and the wells washed once with PBS. Multiwell microtiter plates with cell-coated wells were stored at 4° C. with fresh PBS solution in the coated wells.
(§9) The cells to be studied for binding were suspended in PBS and adsorbed onto to a poly-L-lysine pretreated 96-well plate and kept at 4° C. The PBS was removed from the wells and an H2O2 solution in PBS (6% H2O2 in 200 μL/well) was added. […]

[2] = test system: AML cells; assay: ELISA binding of phage displaying peptides to fixed cells: AML cells; parameters: species or system human; conditions: in words
Experimental: as §1, §2, §3, §4, §5, §6, §7, §8, §9

[3] = test system: normal peripheral blood cells (lymphocytes and granulocytes); assay: ELISA binding of phage displaying peptides to fixed cells: normal peripheral blood cells; parameters: species or system human; conditions: in words
Experimental: as §1, §2, §3, §4, §5, §6, §7, §8, §9

[4] = test system: CLL cells; assay: ELISA binding of phage displaying peptides to fixed cells: CLL cells; parameters: species or system human; conditions: in words
Experimental: as §1, §2, §3, §4, §5, §6, §7, §8, §9

[5] = test system: all myeloid cells, both malignant and nonmalignant; assay: ELISA binding of phage displaying peptides to fixed cells: all myeloid cells; parameters: species or system human; conditions: in words
Experimental: as §1, §2, §3, §4, §5, §6, §7, §8, §9

[6] = test system: human myeloid leukemia cell line HL60; assay: Viability of HL60 cells, trypan blue; format: cell-based
Experimental: Studies were conducted of the effects of the free G5 12-8B (artificially synthesized), phage displaying G5 12-8B, the free A2 11-24 peptide, phage displaying the A2 11-24 peptide, a combination of the free G5 and A2 peptides, a combination of pure peptides plus phage displaying the peptides, and several concentrations of peptide.

[7] = test system: human bone marrow AML cells; assay: Effect of phage-peptides on differentiation, cell number and viability of freshly obtained AML patient bone marrow cells cultured seven days; format: cell-based; conditions: for Number of Cells / Percent Differentiation / Viability: phage-peptides; for Percent differentiated in Specimen 1 / Percent differentiated in Specimen 2: peptides in bacteriophage, AML cells cultured seven days in vitro
Source text: The effect of various phage-peptides were studied on the differentiation of cells from two AML patients.

| Substance | binding of phage displaying the peptide to CML cells [1] | binding of phage displaying the peptide to AML cells [2] | binding of phage displaying the peptide to blood cells (lymphocytes or granulocytes) [3] | binding of phage displaying the peptide to CLL cells [4] | binding of phage displaying the peptide to all myeloid cells, both malignant and nonmalignant [5] | further results |
| --- | --- | --- | --- | --- | --- | --- |
| IEETARKG [D9 12-8B] | bind | bind | bind | bind | bind |  |
| IEETARKG [peptide A2] |  |  |  |  |  | Day 5 Viability ([6]; 5 day): 97%; Day 7 Viability ([6]; 7 day): 95%; Day 9 Viability ([6]; 9 day): 74% |
| NELHMKQH [G6 12-8B] |  |  |  |  | bind |  |
| NETTVREY [A7 11-24] |  |  | bind | bind |  |  |
| NETTVREY [C9 11-24] | bind | bind | bind | bind | bind |  |
| NETTVREY [F10 11-24] | bind | bind |  | not | bind |  |
| NHVCSRLG [B4(2)] | bind | bind | bind | bind |  |  |
| NHVCSRLG [B6 11-24] |  |  |  |  | bind |  |
| NNATFEDG [G2 12-8A] |  |  |  |  |  | Number of Cells ([7]; Patient 1): 0.93 106; Percent Differentiation ([7]; Patient 1): 27.5%; Number of Cells ([7]; Patient 2): 0.31 106; Percent Differentiation ([7]; Patient 2): 52%; Percent differentiated in Specimen 1 [7]: 28%; Percent differentiated in Specimen 2 [7]: 51% |
| NNATVEDE [F9 11-24] |  |  |  |  | bind |  |
| VSEDIYDA [C10 12-8B] | bind | bind |  | bind | bind |  |
| VSEDIYDA [E5 12-8B] |  |  | bind | bind |  |  |
| VSEDIYDA [F1 12-8B] | binds and bind | binds and bind |  | not | bind | Number of Cells ([7]; Patient 1): 0.82 106; Percent Differentiation ([7]; Patient 1): 34%; Number of Cells ([7]; Patient 2): 0.22 106; Percent Differentiation ([7]; Patient 2): 52%; Percent differentiated in Specimen 1 [7]: 34%; Percent differentiated in Specimen 2 [7]: 52% |
| granulocyte-macrophage colony-stimulating factor [GM-CSF] |  |  |  |  |  | Number of Cells ([7]; Patient 1): 1.57 106; Percent Differentiation ([7]; Patient 1): 21%; Viability ([7]; Patient 1): 80%; Number of Cells ([7]; Patient 2): 0.87 106; Percent Differentiation ([7]; Patient 2): 16.5%; Viability ([7]; Patient 2): 89%; Percent differentiated in Specimen 1 [7]: 21%; Percent differentiated in Specimen 2 [7]: 17% |
